Experimental data from patent publication US20250019357A1, “[…] MORPHIC FORMS AND MIXTURES FOR THE TREATMENT OF MENTAL DISORDERS OR MENTAL ENHANCEMENT” (TACTOGEN INC, priority 2021, published 2025).
Structures can show the parent of a compound that is named as a salt. Where two headings read alike, the source gives them in different places.

Assays:
[1] = target: 5-HT1BR (Homo sapiens (Human), UniProt P28222); assay type: cell-based; conditions: for Hill Coef.: 5-HT1BR agonist curve; for EC50: Table 3
[2] = Scale-up and solid-state stability study; assay type: physicochemical; conditions: ~10 mg staged at 40° C./75% RH for 1 day, analyzed by PXRD
Experimental: Scale up study of selected S-5-MAPB salts (Patterns 1A, 2A, and 10A) to −70 mg was completed. […] All three samples were then tested for their solid-state stability as shown below in Table 17. (API=5-MAPB HCl)
Scale up study of selected salts (S-5-MAPB Patterns 1A, 4A, and 8A) to −250 mg completed. Patterns 1A, 4A, and 8A were all scaled up successfully. All three samples were then tested for their solid-state stability as shown below in Table 19. (API=S-5-MAPB Pure Enantiomer)

[3] = target: T1, SERT (Rattus norvegicus (Rat), UniProt P31652); assay: In vitro rat synaptosome serotonin uptake inhibition assay (Examples 9, 58); assay type: biochemical; conditions: rat synaptosomes
Text: (§1) FIG. 7A is a graph showing results from an in vitro rat synaptosome serotonin uptake inhibition assay. […] Details and procedural information for this assay are described in Example 9. The x-axis is the log [dose] concentration measured in molar and the y-axis is the [^3H]-labeled 5-HT reuptake measured in percent.
as §1, with “176” for “7A”, “58.” for “9.”, “x-axis” for “x-axis is”, “concentration is” for “concentration”, “Molar units” for “molar”, “percent of maximum produced by the comparison releaser.” for “percent.”

[4] = target: T1, SERT; assay: In vitro rat synaptosome serotonin release (efflux) assay (Examples 9, 58); assay type: biochemical; conditions: rat synaptosomes
Text: as §1, with “7B” for “7A”, “release” for “uptake inhibition”, “release” for “reuptake”
as §1, with “177” for “7A”, “release” for “uptake inhibition”, “58.” for “9.”, “x-axis” for “x-axis is”, “release” for “reuptake”

[5] = target: human 5-HT transporter (hSERT) (Homo sapiens (Human), UniProt P31645); assay: Human serotonin transporter  assay ([3H]imipramine radioligand, CHO cells); assay type: binding
Experimental: EXAMPLE 8: Human Serotonin Transporter (SERT, SLC6A4) Functional Antagonist Uptake Assay
Benzofuran derivatives were evaluated for inhibiting the human 5-HT transporter (hSERT) as expressed in CHO cells using an antagonist radioligand assay (Tatsumi, M. et al. (1999), Eur. J. Pharmacol., 368: 277-283). […] Test compounds were assayed in three trials at […], and 0.94868 μM.
EXAMPLE 57: Human Serotonin Transporter (SERT, SLC6A4) Functional Antagonist Uptake Assay

[6] = target: serotonin (5-HT) transporter (SERT) (Rattus norvegicus (Rat), UniProt P31652); assay: Rat synaptosome SERT uptake inhibition assay ([3H]5-HT)
[7] = Human self-reported effects of non-racemic 5-MAPB (Good, Bad, Open ratings); assay type: in vivo
Experimental: The effects of non-racemic 5-MAPB HCl were tested by a healthy human individual at four different ratios of enantiomers plus the racemate as a control: • 54 mg S and 0 mg R (100% S) • 47 mg S and 7 mg R (about 87% S) • 36 mg S and 18 mg R (about 67% S) • 27 mg S and 27 mg R (about 50% S) • 7 mg S and 47 mg R (about 13% S)
Two trials were carried out at each ratio, except for 13% S where only one was conducted. Trials were at least 72 h apart.
5-MAPB HCl was dissolved in 1.5 ml distilled water and consumed in two halves, separated by 1 hour. Starting at 3 hours after administration, tablets of 250 mg ascorbic acid and capsules of 300 mg alpha lipoic acid were taken ad libitum (approximately every hour for a total of 4 administrations).
Measurements were made approximately every 2 hours until post 6 hours and the maximum ratings per session were analyzed. Additionally, an index of good drug effects versus emotional openness, calculated as (Open−Good)/(200, the theoretical maximum of Open+ Good), was constructed at each time point and the maximum analyzed. In healthy volunteers, Good Ratings can be considered a predictor of abuse liability. Accordingly, this index can be used as an indicator of the balance of a therapeutic effect (emotional openness) vs abuse liability.
Historic data of two trials 50 mg RS-5-MAPB Cl from the same individual were also included in the analysis for comparison.
Table 24 below indicates maximums for individual measures and for the open vs good index, averaged from all sessions (N=2, except for 13% S-5-MAPB where N=1). Qualitatively, all conditions produced subtle emotional effects, including decreases in negative affect and increases in stability of mood, without sensory distortion.

[8] = target: dopamine transporter (DAT) (Rattus norvegicus (Rat), UniProt P23977); assay: Rat synaptosome DAT release assay ([3H]MPP+); conditions: read-out: dopamine Emax (maximum dopamine increase relative to reference drug)
[9] = target: Human Trace Amine Associated Receptor (hTAAR1) (Homo sapiens (Human), UniProt Q96RJ0); assay: hTAAR1 agonist assay (DiscoverX cAMP Hunter); assay type: cell-based; conditions: for hTAAR1 maximum detected effects: seven concentrations between 0.05692 and 60 μM
[10] = S-5-MAPB salt scale-up (~250 mg, API=S-5-MAPB Pure Enantiomer)
[11] = Cheng Prusoff equation, read-out: SERT Ki
[12] = read-out: Inhibition of [3H]5-HT Uptake at SERT IC50, rat brain synaptosomes, 5 nM [3H]5-HT
[13] = one healthy human, 54 mg total 5-MAPB HCl oral in two halves 1 hour apart, session maximum averaged (N=2, 13% S N=1)
[14] = S-5-MAPB salt scale-up (~70 mg, API=5-MAPB HCl)

Compound: CNC(C)C(=O)c1ccc2occc2c1 (racemic) [rac-BK-5-MAPB, 1-(benzofuran-5-yl)-2-(methylamino)propan-1-one hydrochloride]
- Hill Coef. [1]: 0.91

Compound: CCC(NC)C(=O)c1ccc2occc2c1 (racemic) [rac-BK-5-MBPB, 1-(benzofuran-5-yl)-2-(methylamino) butan-1-one]
- Hill Coef. [1]: 1.01

Compound: CNC(C)C(=O)c1ccc2ccoc2c1 (racemic) [rac-BK-6-MAPB, 1-(benzofuran-6-yl)-2-(methylamino)propan-1-one hydrochloride]
- Hill Coef. [1]: 0.99

Compound: CN[C@@H](C)Cc1ccc2occc2c1.O=P(O)(O)O (single isomer, unassigned) [H3PO4 (Pattern 4A), 5-MAPB Enantiomer H3PO4]
- PXRD Pattern (40° C./75% RH sample) [2, 10]: 4A

Compound: CN[C@@H](C)Cc1ccc2occc2c1.O=C(O)C(=O)O (single isomer, unassigned) [Oxalic (Pattern 8A), 5-MAPB Enantiomer oxalic acid]
- PXRD Pattern (40° C./75% RH sample) [2, 10]: 8A

Compound: CNC(C)C(=O)c1ccc2occc2c1 (single isomer, unassigned; (+)) [(+)-Bk-5-MAPB, 1-(benzofuran-5-yl)-2-(methylamino) propan-1-one]
- [3H]-labeled 5-HT reuptake (serotonin uptake inhibition) [3]: rapidly increases extracellular serotonin by inhibiting reuptake
- [3H]-labeled 5-HT release [4]: rapidly increases extracellular serotonin by stimulating release
- Hill Coef. [1]: 1.05

Compound: CNC(C)C(=O)c1ccc2ccoc2c1 (single isomer, unassigned; (+)) [(+)-Bk-6-MAPB, 1-(benzofuran-6-yl)-2-(methylamino) propan-1-one]
- [3H]-labeled 5-HT reuptake (serotonin uptake inhibition) [3]: rapidly increases extracellular serotonin by inhibiting reuptake
- IC50 [5]: 110000 nM
- Ki [5]: 51000 nM
- [3H]-labeled 5-HT release [4]: rapidly increases extracellular serotonin by stimulating release

Compound: CCC(NC)C(=O)c1ccc2occc2c1 (single isomer, unassigned; (-)) [(−)-BK-5-MBPB, 1-(benzofuran-5-yl)-2-(methylamino) butan-1-one]
- Hill Coef. [1]: 1.6241

Compound: CNC(C)C(=O)c1ccc2occc2c1 (single isomer, unassigned; (-)) [(−)-Bk-5-MAPB, 1-(benzofuran-5-yl)-2-(methylamino) propan-1-one]
- [3H]-labeled 5-HT reuptake (serotonin uptake inhibition) [3]: rapidly increases extracellular serotonin by inhibiting reuptake
- [3H]-labeled 5-HT release [4]: rapidly increases extracellular serotonin by stimulating release
- Hill Coef. [1]: 1.5

Compound: CNC(C)C(=O)c1ccc2ccoc2c1 (single isomer, unassigned; (-)) [(−)-Bk-6-MAPB, 1-(benzofuran-6-yl)-2-(methylamino) propan-1-one]
- [3H]-labeled 5-HT reuptake (serotonin uptake inhibition) [3]: rapidly increases extracellular serotonin by inhibiting reuptake
- [3H]-labeled 5-HT release [4]: rapidly increases extracellular serotonin by stimulating release
- Hill Coef. [1]: 0.8339

Compound: CN[C@H](C)Cc1ccc2ccoc2c1 (stereo in doubt) [Pattern R-6-MAPB, 1-(benzofuran-6-yl)-N-methylpropan-2-amine]
- [3H]-labeled 5-HT reuptake (serotonin uptake inhibition) [3]: rapidly increases extracellular serotonin by inhibiting reuptake
- Ki [5, 11]: 11000 nM
- [3H]-labeled 5-HT release [4]: rapidly increases extracellular serotonin by stimulating release
- Hill Coef. [1]: 1.14
- EC50 [1]: 1480 nM
- IC50 [6, 12]: 623 ± 31.2 nM

Compound: CN[C@@H](C)Cc1ccc2occc2c1 [100% S-5-MAPB]
- duration of effects ([7]; healthy human individual, 54 mg S and 0 mg R): effects of less duration than conditions that included the R-enantiomer
- Bad (bad drug effects), maximum 0-100 rating [7, 13]: 1%
- Good (good drug effects), maximum 0-100 rating [7, 13]: 55%
- Open (emotional openness), maximum 0-100 rating [7, 13]: 65%

Compound: Br.CNC(C)Cc1ccc2occc2c1 (stereo not shown) [HBr (Pattern 2A), 5-MAPB HBr]
- PXRD Pattern (40° C./75% RH sample) [2, 14]: Pattern 2B

Compound: CNC(C)Cc1ccc2occc2c1.Cl (stereo not shown) [HCl (Pattern 1A), 5-MAPB HCl]
- PXRD Pattern (40° C./75% RH sample) [2, 14]: Pattern 1A
- PXRD Pattern (40° C./75% RH sample) [2, 10]: 1A

Compound: CNC(C)Cc1ccc2occc2c1.O=C(O)/C=C\C(=O)O (stereo not shown) [Maleic (Pattern 10A), 5-MAPB maleic acid]
- PXRD Pattern (40° C./75% RH sample) [2, 14]: 10A

Compound: CN[C@H](C)Cc1ccc2occc2c1 [Pattern R-5-MAPB, R-5-MAPB]
- [3H]-labeled 5-HT reuptake (serotonin uptake inhibition) [3]: rapidly increases extracellular serotonin by inhibiting reuptake
- Ki [5, 11]: 1200 nM
- [3H]-labeled 5-HT release [4]: rapidly increases extracellular serotonin by stimulating release
- Hill Coef. [1]: 1.13
- EC50 [1]: 981 nM
- IC50 [6, 12]: 150 ± 8.6 nM

Compound: CC[C@H](Cc1ccc2ccoc2c1)NC [Pattern R-6-MBPB, R-6-MBPB]
- Emax [8]: ~25%
- IC50 [6]: 702 ± 262 nM
- hTAAR1 maximum detected effects [9]: 0.9%

Compound: CN[C@@H](C)Cc1ccc2occc2c1 [Pattern S-5-MAPB, S-5-MAPB]
- [3H]-labeled 5-HT reuptake (serotonin uptake inhibition) [3]: rapidly increases extracellular serotonin by inhibiting reuptake
- Ki [5, 11]: 1500 nM
- [3H]-labeled 5-HT release [4]: rapidly increases extracellular serotonin by stimulating release
- Hill Coef. [1]: 1.08
- EC50 [1]: 161 nM
- IC50 [6, 12]: 60.4 ± 2.8 nM

Compound: CN[C@@H](C)Cc1ccc2ccoc2c1 [Pattern S-6-MAPB, S-6-MAPB]
- [3H]-labeled 5-HT reuptake (serotonin uptake inhibition) [3]: rapidly increases extracellular serotonin by inhibiting reuptake
- Ki [5, 11]: 3100 nM
- [3H]-labeled 5-HT release [4]: rapidly increases extracellular serotonin by stimulating release
- Hill Coef. [1]: 1.21
- EC50 [1]: 102 nM
- IC50 [6, 12]: 90.9 ± 5.9 nM

Compound: CC[C@@H](Cc1ccc2ccoc2c1)NC [Pattern S-6-MBPB, S-6-MBPB]
- Emax [8]: 72%
- IC50 [6]: 217 ± 45.8 nM
- hTAAR1 maximum detected effects [9]: 0.6%

Compound: CCC(Cc1ccc2occc2c1)NC (stereo not shown) [RS-5-MBPB, 1-(benzofuran-5-yl)-N-methylbutan-2-amine]
- [3H]-labeled 5-HT reuptake (serotonin uptake inhibition) [3]: rapidly increases extracellular serotonin by inhibiting reuptake
- [3H]-labeled 5-HT release [4]: rapidly increases extracellular serotonin by stimulating release

Compound: NCCc1ccc(O)cc1 [p-Tyramine, reference compound]
- EC50 ([9]; positive control): 1140 nM
- hTAAR1 Hill constant ([9]; positive control): 0.7453
